Reference: patent US20120165310A1, “ETHER DERIVATIVES OF BICYCLIC HETEROARYLS” (NOVARTIS AG, priority 2009, published 2012)

Target: T1, IGF-1R (Homo sapiens, UniProt P08069)
T1 construct: expressed in transfected cells; host or cells: Hek293 (Hek293-IGF1R)
Experiment: Cellular IGF-1R assay: capture ELISA (MSD) of receptor phosphorylation in Hek293 cells
Assay type: cell-based
Conditions: Hek293-IGF1R cells, 1 h pre-incubation, 10 min IGF stimulation, pIGF1R capture ELISA
Procedure, shortened: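 IC50 from 4-parameter fit of IGF1R phosphorylation, normalised to IGF-stimulated and unstimulated controls, measured by MSD capture ELISA on lysates. Hek293-IGF1R cells in starvation medium got compound 1 h (top 10 μM, 3-fold steps, 0.1% DMSO) before a 10 min pulse of 1.0 ng/μL IGF.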

T1 sequence (P08069 31-1367): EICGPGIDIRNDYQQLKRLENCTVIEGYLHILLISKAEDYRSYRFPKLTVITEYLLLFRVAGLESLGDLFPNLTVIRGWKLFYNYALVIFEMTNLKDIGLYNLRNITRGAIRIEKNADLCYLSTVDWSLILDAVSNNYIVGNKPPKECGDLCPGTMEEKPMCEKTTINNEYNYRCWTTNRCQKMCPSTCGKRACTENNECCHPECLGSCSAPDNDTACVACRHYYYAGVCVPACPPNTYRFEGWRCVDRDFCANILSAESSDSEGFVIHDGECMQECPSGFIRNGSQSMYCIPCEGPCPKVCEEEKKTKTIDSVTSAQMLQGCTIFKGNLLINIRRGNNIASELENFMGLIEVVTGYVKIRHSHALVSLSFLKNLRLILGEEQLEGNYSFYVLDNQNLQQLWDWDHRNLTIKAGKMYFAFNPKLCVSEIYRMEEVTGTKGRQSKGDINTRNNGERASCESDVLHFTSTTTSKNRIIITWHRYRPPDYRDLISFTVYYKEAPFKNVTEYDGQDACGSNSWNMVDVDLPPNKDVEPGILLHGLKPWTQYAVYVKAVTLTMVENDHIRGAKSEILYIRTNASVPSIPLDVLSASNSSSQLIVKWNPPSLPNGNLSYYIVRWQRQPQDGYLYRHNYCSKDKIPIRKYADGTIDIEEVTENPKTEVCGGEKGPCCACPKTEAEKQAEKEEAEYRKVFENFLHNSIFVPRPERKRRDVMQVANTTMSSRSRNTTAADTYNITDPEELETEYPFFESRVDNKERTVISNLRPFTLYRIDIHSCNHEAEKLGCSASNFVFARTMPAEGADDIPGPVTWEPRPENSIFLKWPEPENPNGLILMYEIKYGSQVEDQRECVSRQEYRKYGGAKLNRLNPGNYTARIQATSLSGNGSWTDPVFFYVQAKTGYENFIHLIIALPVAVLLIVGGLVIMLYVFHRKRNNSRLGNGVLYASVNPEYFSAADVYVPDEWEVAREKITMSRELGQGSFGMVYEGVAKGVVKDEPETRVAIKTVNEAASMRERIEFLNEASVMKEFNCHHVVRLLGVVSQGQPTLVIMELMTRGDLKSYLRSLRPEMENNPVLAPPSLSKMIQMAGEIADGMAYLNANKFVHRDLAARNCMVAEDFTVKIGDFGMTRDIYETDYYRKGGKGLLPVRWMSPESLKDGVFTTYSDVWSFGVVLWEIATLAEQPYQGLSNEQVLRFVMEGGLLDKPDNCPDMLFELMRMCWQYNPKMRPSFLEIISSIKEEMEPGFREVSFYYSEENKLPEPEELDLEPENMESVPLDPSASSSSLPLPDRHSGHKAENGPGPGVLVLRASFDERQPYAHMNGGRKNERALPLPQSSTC

Compound | IC50 [nM]
NC(=O)[C@H]1CCCN1C[C@H]1C[C@@H](n2cc(-c3cccc(OCC45CCC(CC4)O5)c3)c3c(N)ncnc32)C1 [Example 75, (R)-1-(cis-3-{4-amino-5-[3-(7-oxa-bicyclo[2.2.1]hept-1-ylmethoxy)-phenyl]-pyrrolo[2,3-d]pyrimidin-7-yl}-cyclobutylmethyl)-pyrrolidine-2-carboxylic acid amide] | 8
Nc1ncnc2c1c(-c1cccc(OCC34CCC(CC3)O4)c1)cn2[C@H]1CC[C@@H](NC(=O)C2CC2)CC1 [Example 146, N-((1S,4S)-4-(5-(3-(7-oxabicyclo[2.2.1]heptan-1-ylmethoxy)phenyl)-4-amino-7H-pyrrolo[2,3-d]pyrimidin-7-yl)cyclohexyl)cyclopropanecarboxamide] | 174
Nc1ncnc2c1c(-c1cccc(OCC34CCC(CC3)O4)c1)cn2C1CC(CNC(CO)CO)C1 (stereo not drawn) [Example 168, 2-[(3-{4-amino-5-[3-(7-oxa-bicyclo[2.2.1]hept-1-ylmethoxy)-phenyl]-pyrrolo[2,3-d]pyrimidin-7-yl}-cyclobutylmethyl)-amino]-propane-1,3-diol] | 109
CCOC(=O)c1nccn1C[C@H]1C[C@@H](n2cc(-c3cccc(OCC45CCC(CC4)O5)c3)c3c(N)ncnc32)C1 [Example 180] | 57
Nc1ncnc2c1c(-c1cccc(OCC34CCC(CC3)O4)c1)cn2C1CC(O)(CN2CCCC2CO)C1 (single isomer, unassigned) [Example 209] | 60
Nc1ncnc2c1c(-c1cccc(OCC34CCC(CC3)O4)c1)cn2C1CC(O)(CN2CCCC2CO)C1 (single isomer, unassigned) [Example 200] | 263
Nc1ncnc2c1c(-c1cccc(OCC34CCC(CC3)O4)c1)cn2[C@H]1CC[C@@H](CN2CCNC(=O)C2)CC1 [Example 129, 4-(((1S,4S)-4-(5-(3-(7-oxabicyclo[2.2.1]heptan-1-ylmethoxy)phenyl)-4-amino-7H-pyrrolo[2,3-d]pyrimidin-7-yl)cyclohexyl)methyl)piperazin-2-one] | 320
CC1(C)CCC(COc2cccc(-c3cn([C@H]4CC[C@H](N5CCOCC5)CC4)c4ncnc(N)c34)c2)O1 (relative stereo) [Example 64, 5-[3-(5,5-dimethyl-tetrahydro-furan-2-ylmethoxy)-phenyl]-7-(trans-4-morpholin-4-yl-cyclohexyl)-7H-pyrrolo[2,3-d]pyrimidin-4-ylamine] | 367
Nc1ncnc2c1c(-c1cccc(OCC34CCC(CC3)O4)c1)cn2C1CCN(C2COC2)CC1 [Example 118, 5-(3-(7-oxabicyclo[2.2.1]heptan-1-ylmethoxy)phenyl)-7-(1-(oxetan-3-yl)piperidin-4-yl)-7H-pyrrolo[2,3-d]pyrimidin-4-amine] | 397
CC(=O)N1CC2CC1CN2[C@H]1C[C@@H](n2cc(-c3cccc(OCC45CCC(CC4)O5)c3)c3c(N)ncnc32)C1 (relative stereo) [Example 173, 1-[5-(cis-3-{4-amino-5-[3-(7-oxa-bicyclo[2.2.1]hept-1-ylmethoxy)-phenyl]-pyrrolo[2,3-d]pyrimidin-7-yl}-cyclobutyl)-2,5-diaza-bicyclo[2.2.1]hept-2-yl]-ethanone] | 182
Nc1ncnc2c1c(-c1cccc(OCC3CCCCO3)c1)cn2[C@H]1C[C@H](CN2CC(F)C2)C1 (relative stereo) [Example 37, 7-[trans-3-(3-fluoro-azetidin-1-ylmethyl)-cyclobutyl]-5-[3-(tetrahydro-pyran-2-ylmethoxy)-phenyl]-7H-pyrrolo[2,3-d]pyrimidin-4-ylamine] | 497
CS(=O)(=O)CCN1CCC(n2cc(-c3cccc(OCC45CCC(CC4)O5)c3)c3c(N)ncnc32)CC1 [Example 114, 5-(3-(7-oxabicyclo[2.2.1]heptan-1-ylmethoxy)phenyl)-7-(1-(2-(methylsulfonyl)ethyl)piperidin-4-yl)-7H-pyrrolo[2,3-d]pyrimidin-4-amine] | 299
CC1(C)CCC(COc2cccc(-c3cn(C4CC(CN5CCC(F)C5)C4)c4ncnc(N)c34)c2)O1 (single isomer, unassigned) [Example 45] | 35
CCC(=O)NCC1CC(n2cc(-c3cccc(OCC45CCC(CC4)O5)c3)c3c(N)ncnc32)C1 (stereo not drawn) [Example 162, N-(3-{4-amino-5-[3-(7-oxa-bicyclo[2.2.1]hept-1-ylmethoxy)-phenyl]-pyrrolo[2,3-d]pyrimidin-7-yl}-cyclobutylmethyl)-propionamide] | 101
NC(=O)[C@@H]1[C@@H](O)CCN1C[C@H]1C[C@@H](n2cc(-c3cccc(OCC4CCCCO4)c3)c3c(N)ncnc32)C1 (stereo partly drawn) [Example 35, (2S,3S)-1-(cis-3-{4-amino-5-[3-(tetrahydro-pyran-2-ylmethoxy)-phenyl]-pyrrolo[2,3-d]pyrimidin-7-yl}-cyclobutylmethyl)-3-hydroxy-pyrrolidine-2-carboxylic acid amide] | 41 to 103
Nc1ncnc2c1c(-c1cccc(OCC3CCCCO3)c1)cn2C1CC(CN2CCCC2C(O)C(F)(F)F)C1 [Example 120, (1S)-1-((2S)-1-(((1S,3R)-3-(4-amino-5-(3-((tetrahydro-2H-pyran-2-yl)methoxy)phenyl)-7H-pyrrolo[2,3-d]pyrimidin-7-yl)cyclobutyl)methyl)pyrrolidin-2-yl)-2,2,2-trifluoroethanol] | 195
Nc1ncnc2c1c(-c1cccc(OCC3CCCCO3)c1)cn2[C@H]1C[C@@H](CN2CCC(F)(F)CC2)C1 (relative stereo) [Example 31, 7-[cis-3-(4,4-difluoro-piperidin-1-ylmethyl)-cyclobutyl]-5-[3-(tetrahydro-pyran-2-ylmethoxy)-phenyl]-7H-pyrrolo[2,3-d]pyrimidin-4-ylamine] | 408
CC(=O)N[C@H]1CC[C@@H](n2cc(-c3cccc(OCC45CCC(CC4)O5)c3)c3c(N)ncnc32)CC1 [Example 133, N-((1S,4S)-4-(5-(3-(7-oxabicyclo[2.2.1]heptan-1-ylmethoxy)phenyl)-4-amino-7H-pyrrolo[2,3-d]pyrimidin-7-yl)cyclohexyl)acetamide] | 238
Nc1ncnc2c1c(-c1cccc(OCC34CCC(CC3)O4)c1)cn2C1CC(O)(CN2CCCC2CO)C1 (single isomer, unassigned) [Example 202] | 390
NC(=O)[C@H]1[C@@H](O)CCN1C[C@H]1C[C@@H](n2cc(-c3cccc(OCC4CCCCO4)c3)c3c(N)ncnc32)C1 (stereo partly drawn) [Example 56, (2R,3S)-1-(cis-3-{4-amino-5-[3-(tetrahydro-pyran-2-ylmethoxy)-phenyl]-pyrrolo[2,3d]pyrimidin-7-yl}-cyclobutylmethyl)-3-hydroxy-pyrrolidine-2-carboxylic acid amide] | 97
CC(C)C(=O)NCC1CC(n2cc(-c3cccc(OCC45CCC(CC4)O5)c3)c3c(N)ncnc32)C1 (stereo not drawn) [Example 164, N-(3-{4-amino-5-[3-(7-oxa-bicyclo[2.2.1]hept-1-ylmethoxy)-phenyl]-pyrrolo[2,3-d]pyrimidin-7-yl}-cyclobutylmethyl)-isobutyramide] | 143
Nc1ncnc2c1c(-c1cccc(OCC34CCC(CC3)O4)c1)cn2[C@H]1CC[C@@H](CN2CCSCC2)CC1 [Example 112, 5-(3-(7-oxabicyclo[2.2.1]heptan-1-ylmethoxy)phenyl)-7-((1S,4S)-4-(thiomorpholinomethyl)cyclohexyl)-7H-pyrrolo[2,3-d]pyrimidin-4-amine] | 36
CC1CCC(COc2cccc(-c3cn(C4CC(CN5CCC5)C4)c4ncnc(N)c34)c2)O1 (single isomer, unassigned) [Example 7, cis-(RR and SS)-7-(3-azetidin-1-ylmethyl-cyclobutyl)-5-[3-(5-methyl-tetrahydro-furan-2-ylmethoxy)-phenyl]-7H-pyrrolo[2,3-d]pyrimidin-4-ylamine] | 95 to 117
Nc1ncnc2c1c(-c1cccc(OCC3CCCO3)c1)cn2[C@H]1C[C@@H](CN2CCC(F)(F)CC2)C1 (relative stereo) [Example 83, 7-[cis-3-(4,4-difluoro-piperidin-1-ylmethyl)-cyclobutyl]-5-[3-(tetrahydro-furan-2-ylmethoxy)-phenyl]-7H-pyrrolo[2,3-d]pyrimidin-4-ylamine] | 372
Cc1cccc(NC[C@H]2C[C@@H](n3cc(-c4cccc(OCC56CCC(CC5)O6)c4)c4c(N)ncnc43)C2)n1 (relative stereo) [Example 194, 7-{cis-3-[(6-Methyl-pyridin-2-ylamino)-methyl]-cyclobutyl}-5-[3-(7-oxa-bicyclo[2.2.1]hept-1-ylmethoxy)-phenyl]-7H-pyrrolo[2,3-d]pyrimidin-4-ylamine] | 83
C[C@]1(O)C[C@@H](c2nc(-c3cccc(OCC45CCC(CC4)O5)c3)c3c(N)nccn32)C1 [Example 122] | 485
Nc1ncnc2c1c(-c1cccc(OCC34CCC(CC3)O4)c1)cn2C1CC(CN2CC3CC2C[S+]3[O-])C1 (single isomer, unassigned) [Example 229] | 633
Nc1ncnc2c1c(-c1cccc(OCC34CCC(CC3)O4)c1)cn2[C@H]1CC[C@@H](N2CCC(F)(F)CC2)CC1 [Example 116, 5-(3-(7-oxabicyclo[2.2.1]heptan-1-ylmethoxy)phenyl)-7-((1S,4S)-4-(4,4-difluoropiperidin-1-yl)cyclohexyl)-7H-pyrrolo[2,3-d]pyrimidin-4-amine] | 224
NC(=O)C1CC(F)CN1CC1CC(n2cc(-c3cccc(OCC4CCCCO4)c3)c3c(N)ncnc32)C1 [Example 94, (2S,4R)-1-(((1 S,3R)-3-(4-amino-5-(3-((tetrahydro-2H-pyran-2-yl)methoxy)phenyl)-7H-pyrrolo[2,3-d]pyrimidin-7-yl)cyclobutyl)methyl)-4-fluoropyrrolidine-2-carboxamide] | 85
CC1CCC(COc2cccc(-c3cn(C4CC(CN5CCC5)C4)c4ncnc(N)c34)c2)O1 (single isomer, unassigned) [Example 6, cis-(RR and SS)-7-(3-azetidin-1-ylmethyl-cyclobutyl)-5-[3-(5-methyl-tetrahydro-furan-2-ylmethoxy)-phenyl]-7H-pyrrolo[2,3-d]pyrimidin-4-ylamine] | 30
